Assay [1] relates to Enterococcus faecalis. The experiment in a line: microbe, parasite or virus in culture. The assay is classed as functional. The settings on record: ATCC 19433.
Description: Antibacterial activity against vancomycin-sensitive Enterococcus faecalis ATCC 19433 assessed as growth inhibition by CLSI broth microdilution method
Assay [2] concerns Staphylococcus aureus. Description: microbe, parasite or virus in culture. The assay is classed as functional. The settings on record: ATCC 33591.
Description: Antibacterial activity against methicillin-resistant Staphylococcus aureus ATCC 33591 assessed as growth inhibition by CLSI broth microdilution method
Assay [3] deals with Staphylococcus aureus. The experiment in a line: Antibacterial activity against methicillin-sensitive Staphylococcus aureus 8325-4 assessed as growth inhibition by CLSI broth microdilution method. The assay is classed as functional. In general terms: In broth dilution the organism is exposed to a series of concentrations in liquid medium.
The subject of assay [4] is Enterococcus faecalis. Description: Antibacterial activity against vancomycin-resistant Enterococcus faecalis ATCC 51575 assessed as growth inhibition by CLSI broth microdilution method. The assay is classed as functional.
The target of assay [5] is T1, Cell division protein FtsZ (Staphylococcus aureus) (UniProt P0A031).
T1 sequence (whole entry): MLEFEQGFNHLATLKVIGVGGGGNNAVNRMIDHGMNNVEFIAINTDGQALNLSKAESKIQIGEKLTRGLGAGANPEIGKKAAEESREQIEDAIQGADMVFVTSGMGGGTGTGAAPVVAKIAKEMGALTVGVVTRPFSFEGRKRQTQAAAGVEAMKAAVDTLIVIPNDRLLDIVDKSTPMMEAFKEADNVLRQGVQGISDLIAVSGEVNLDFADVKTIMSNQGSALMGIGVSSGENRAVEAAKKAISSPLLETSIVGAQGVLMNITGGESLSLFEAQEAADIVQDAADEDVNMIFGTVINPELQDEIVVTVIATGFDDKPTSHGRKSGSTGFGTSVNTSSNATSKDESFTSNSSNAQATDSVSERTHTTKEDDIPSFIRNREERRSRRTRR
The experiment in a line: Stimulation of Staphylococcus aureus ATCC 33591 FtsZ self-polymerization expressed in Escherichia coli BL21 (DE3) at 40 ug/mL by light scattering assay.

Assay [6] deals with Tubulin beta chain (Sus scrofa) (UniProt P02554). Description: Stimulation of porcine MAP-rich beta-tubulin polymerization at 40 ug/mL by light scattering assay.
The target is the same in assay [7]. The experiment in a line: Inhibition of porcine MAP-rich beta-tubulin polymerization at 10 ug/mL by light scattering assay.

≈ marks a conversion by molar mass, not a printed value. Calls of active or inactive are those of the source. No cut-off for these calls is given here.

Sequence of Tubulin beta chain (Sus scrofa) (P02554 whole entry): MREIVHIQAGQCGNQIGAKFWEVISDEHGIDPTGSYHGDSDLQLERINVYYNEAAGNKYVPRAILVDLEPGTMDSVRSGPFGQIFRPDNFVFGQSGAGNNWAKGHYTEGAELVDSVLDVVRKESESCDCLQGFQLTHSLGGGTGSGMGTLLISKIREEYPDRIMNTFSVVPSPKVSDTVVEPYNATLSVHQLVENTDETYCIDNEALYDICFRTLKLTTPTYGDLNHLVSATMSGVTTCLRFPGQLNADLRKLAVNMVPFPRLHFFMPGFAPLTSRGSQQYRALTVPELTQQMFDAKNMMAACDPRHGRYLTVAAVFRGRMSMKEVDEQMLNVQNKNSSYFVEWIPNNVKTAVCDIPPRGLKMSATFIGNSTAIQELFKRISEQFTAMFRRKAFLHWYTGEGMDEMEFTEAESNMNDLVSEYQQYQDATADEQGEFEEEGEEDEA

For `COC(=O)c1ccc(-c2ccc3c(-c4ccc(C(C)(C)C)cc4)cccc3c2)c(C[N+](C)(C)C)c1.[I-]`, the MIC90 was 4 µg/mL in the assay on Enterococcus faecalis [1], 2 µg/mL in the assay with Staphylococcus aureus [2], 1 µg/mL in the assay with Staphylococcus aureus [3] and 8 µg/mL in the assay on Enterococcus faecalis [4].
For `C[N+](C)(C)c1cccc(-c2ccc3c(-c4cccc(-c5ccccc5)c4)cccc3c2)c1.[I-]` the same measures were 2 µg/mL, 1 µg/mL, 1 µg/mL and 2 µg/mL.
For `CN(C)Cc1cccc(-c2ccc3c(-c4cccc(-c5ccccc5)c4)cccc3c2)c1` the same measures were 16 µg/mL (≈ 38.7 µM), 8 µg/mL (≈ 19.3 µM), 4 µg/mL (≈ 9.67 µM) and 16 µg/mL (≈ 38.7 µM).
`CC(C)(C)c1ccc(-c2cccc3cc(-c4ccc(C(=O)O)cc4CN)ccc23)cc1`: the MIC90 in the assay on Enterococcus faecalis [1], with Staphylococcus aureus [2], in the assay on Staphylococcus aureus [3] and with Enterococcus faecalis [4] was greater than 64 µg/mL each time.
For the molecule `CNCc1cc(C(=O)OC)ccc1-c1ccc2c(-c3ccc(C(C)(C)C)cc3)cccc2c1`, the MIC90 stood at 8 µg/mL (≈ 18.3 µM) in the assay with Enterococcus faecalis [1], 4 µg/mL (≈ 9.14 µM) against Staphylococcus aureus [2], 4 µg/mL (≈ 9.14 µM) in the assay with Staphylococcus aureus [3] and 4 µg/mL (≈ 9.14 µM) in the assay on Enterococcus faecalis [4].
Consider `C[N+](C)(C)c1ccc(-c2ccc3c(-c4ccc(-c5ccccc5)cc4)cccc3c2)cc1.[I-]`, for which the MIC90 against Enterococcus faecalis [1] came out at 2 µg/mL; in the assay on Staphylococcus aureus [2], 1 µg/mL; in the assay on Staphylococcus aureus [3], 1 µg/mL; with Enterococcus faecalis [4], 2 µg/mL.
Take `C[N+](C)(C)c1cccc(-c2ccc3c(-c4ccc(C(F)(F)F)cc4)cccc3c2)c1.[I-]`: the MIC90 against Enterococcus faecalis [1] came out at 8 µg/mL; in the assay with Staphylococcus aureus [2], 4 µg/mL; with Staphylococcus aureus [3], 1 µg/mL; in the assay with Enterococcus faecalis [4], 8 µg/mL.
As for `CC(C)(C)c1ccc(-c2cccc3cc(-c4ccccc4C[N+](C)(C)C)ccc23)cc1.[I-]`, the MIC90 against Enterococcus faecalis [1] is 4 µg/mL; with Staphylococcus aureus [2] it was 0.5 µg/mL; with Staphylococcus aureus [3] it was 0.5 µg/mL; with Enterococcus faecalis [4], 4 µg/mL. In addition, the outcome in assay [5] was Active. Besides, the result in assay [6] was inactive.
As to `C[N+](C)(C)c1cccc(-c2ccc3c(-c4ccc(F)cc4)cccc3c2)c1.[I-]`, the MIC90 with Enterococcus faecalis [1] was determined as 8 µg/mL; in the assay with Staphylococcus aureus [2], 4 µg/mL; in the assay with Staphylococcus aureus [3], 1 µg/mL; in the assay on Enterococcus faecalis [4], 8 µg/mL.
For `C[N+](C)(C)c1cccc(-c2ccc3c(-c4ccc(-c5ccccc5)cc4)cccc3c2)c1.[I-]`, the MIC90 against Enterococcus faecalis [1] was 2 µg/mL; against Staphylococcus aureus [2], 1 µg/mL; in the assay on Staphylococcus aureus [3], 0.5 µg/mL; in the assay on Enterococcus faecalis [4] it was 4 µg/mL.
The corresponding values for `COC(=O)c1ccc(-c2ccc3c(-c4ccc(C(C)(C)C)cc4)cccc3c2)c(CN(C)C)c1` are greater than 64 µg/mL, greater than 64 µg/mL, greater than 64 µg/mL and greater than 64 µg/mL.
For `C[N+](C)(C)c1ccc(-c2ccc3c(-c4cccc(-c5ccccc5)c4)cccc3c2)cc1.[I-]` the same measures were 2 µg/mL, 1 µg/mL, 1 µg/mL and 2 µg/mL.
The corresponding values for `CC(C)(C)c1ccc(-c2cccc3cc(-c4ccccc4N)ccc23)cc1` are greater than 64 µg/mL, greater than 64 µg/mL, greater than 64 µg/mL and greater than 64 µg/mL.
In the case of `NCc1cccc(-c2ccc3c(-c4cccc(-c5ccccc5)c4)cccc3c2)c1`, the MIC90 was found to be 4 µg/mL (≈ 10.4 µM) in the assay with Enterococcus faecalis [1], 4 µg/mL (≈ 10.4 µM) in the assay on Staphylococcus aureus [2], 2 µg/mL (≈ 5.19 µM) in the assay on Staphylococcus aureus [3] and 8 µg/mL (≈ 20.8 µM) in the assay with Enterococcus faecalis [4].
Turning to `CN[C@H](CC(C)C)C(=O)N[C@H]1C(=O)N[C@@H](CC(N)=O)C(=O)N[C@H]2C(=O)N[C@H]3C(=O)N[C@H](C(=O)N[C@H](C(=O)O)c4cc(O)cc(O)c4-c4cc3ccc4O)[C@H](O)c3ccc(c(Cl)c3)Oc3cc2cc(c3O[C@@H]2O[C@H](CO)[C@@H](O)[C@H](O)[C@H]2O[C@H]2C[C@](C)(N)[C@H](O)[C@H](C)O2)Oc2ccc(cc2Cl)[C@H]1O` [VANCOMYCIN], the MIC90 in the assay with Enterococcus faecalis [1] is 1 µg/mL (≈ 0.69 µM); in the assay with Staphylococcus aureus [2], 2 µg/mL (≈ 1.38 µM); in the assay with Staphylococcus aureus [3], 1 µg/mL (≈ 0.69 µM); with Enterococcus faecalis [4] it was greater than 64 µg/mL. Besides, the result in assay [5] was inactive.
For `CNCc1ccccc1-c1ccc2c(-c3ccc(C(C)(C)C)cc3)cccc2c1`, the MIC90 against Enterococcus faecalis [1], against Staphylococcus aureus [2], in the assay on Staphylococcus aureus [3] and in the assay on Enterococcus faecalis [4] was 2 µg/mL (≈ 5.27 µM) each time.
As for `Cc1ccccc1-c1ccc2c(-c3ccc(C(C)(C)C)cc3)cccc2c1`, the MIC90 against Enterococcus faecalis [1], with Staphylococcus aureus [2], in the assay with Staphylococcus aureus [3] and in the assay on Enterococcus faecalis [4] was greater than 64 µg/mL each time.
`CC(C)(C)c1ccc(-c2cccc3cc(-c4ccc([N+](C)(C)C)cc4)ccc23)cc1.[I-]`: the MIC90 in the assay with Enterococcus faecalis [1] was 4 µg/mL; in the assay with Staphylococcus aureus [2] it was 2 µg/mL; in the assay on Staphylococcus aureus [3] it was 1 µg/mL; in the assay with Enterococcus faecalis [4], 4 µg/mL.
For `COC(=O)c1ccc(-c2ccc3c(-c4ccc(C(C)(C)C)cc4)cccc3c2)c(CN=C(N)N)c1`, the MIC90 against Enterococcus faecalis [1] is 2 µg/mL (≈ 4.3 µM); against Staphylococcus aureus [2] it was 1 µg/mL (≈ 2.15 µM); with Staphylococcus aureus [3] it was 1 µg/mL (≈ 2.15 µM); in the assay with Enterococcus faecalis [4] it was 4 µg/mL (≈ 8.59 µM).
For the molecule `CC(C)(C)c1ccc(-c2cccc3cc(-c4ccccc4CCN)ccc23)cc1`, the MIC90 in the assay with Enterococcus faecalis [1] was 4 µg/mL (≈ 10.5 µM); in the assay on Staphylococcus aureus [2], 2 µg/mL (≈ 5.27 µM); in the assay on Staphylococcus aureus [3], 2 µg/mL (≈ 5.27 µM); in the assay on Enterococcus faecalis [4] it was 4 µg/mL (≈ 10.5 µM). In addition, the result in assay [5] was Active.
`COC(=O)c1ccc(-c2ccc3c(-c4ccc(C(C)(C)C)cc4)cccc3c2)c(CN)c1`: the MIC90 was 16 µg/mL (≈ 37.8 µM) against Enterococcus faecalis [1], 2 µg/mL (≈ 4.72 µM) against Staphylococcus aureus [2], 2 µg/mL (≈ 4.72 µM) in the assay with Staphylococcus aureus [3] and 16 µg/mL (≈ 37.8 µM) in the assay with Enterococcus faecalis [4].
As to `CC(C)(C)c1ccc(-c2cccc3cc(-c4cccc(N)c4)ccc23)cc1`, the MIC90 in the assay on Enterococcus faecalis [1], in the assay with Staphylococcus aureus [2], in the assay on Staphylococcus aureus [3] and with Enterococcus faecalis [4] was greater than 64 µg/mL throughout.
`C[N+](C)(C)Cc1cccc(-c2ccc3c(-c4cccc(-c5ccccc5)c4)cccc3c2)c1.[I-]`: the MIC90 in the assay with Enterococcus faecalis [1] amounted to 4 µg/mL; against Staphylococcus aureus [2], 1 µg/mL; with Staphylococcus aureus [3], 0.5 µg/mL; with Enterococcus faecalis [4], 4 µg/mL.
In the case of `C[n+]1cc2c3c(ccc2c2ccc4cc5c(cc4c21)OCO5)OCO3` [SANGUINARIUM], the MIC90 came to 8 µg/mL against Enterococcus faecalis [1], 2 µg/mL against Staphylococcus aureus [2], 2 µg/mL in the assay on Staphylococcus aureus [3] and 16 µg/mL in the assay with Enterococcus faecalis [4].
Take `CCC[C@@H]1C[C@@H](C(=O)N[C@@H]([C@H]2O[C@H](SC)[C@H](O)[C@@H](O)[C@H]2O)[C@H](C)Cl)N(C)C1` [CLINDAMYCIN]: the MIC90 is 2 µg/mL (≈ 4.71 µM) in the assay on Enterococcus faecalis [1], greater than 64 µg/mL against Staphylococcus aureus [2], 0.031 µg/mL (≈ 0.0729 µM) in the assay with Staphylococcus aureus [3] and greater than 64 µg/mL in the assay on Enterococcus faecalis [4].
For `C[N+](C)(C)c1ccc(-c2ccc3c(-c4ccc(F)cc4)cccc3c2)cc1.[I-]`, the MIC90 against Enterococcus faecalis [1], against Staphylococcus aureus [2], in the assay on Staphylococcus aureus [3] and in the assay with Enterococcus faecalis [4] was 4 µg/mL throughout.
Take `CC(C)(C)c1ccc(-c2cccc3cc(-c4cccc([N+](C)(C)C)c4)ccc23)cc1.[I-]`: the MIC90 against Enterococcus faecalis [1] is 2 µg/mL; in the assay on Staphylococcus aureus [2], 1 µg/mL; in the assay on Staphylococcus aureus [3], 0.5 µg/mL; in the assay on Enterococcus faecalis [4] it was 2 µg/mL.
Turning to `Cc1onc(-c2ccccc2)c1C(=O)N[C@@H]1C(=O)N2[C@@H]1SC(C)(C)[C@@H]2C(=O)O` [OXACILLIN], the MIC90 in the assay on Enterococcus faecalis [1] was 8 µg/mL (≈ 19.9 µM); in the assay on Staphylococcus aureus [2], greater than 64 µg/mL; in the assay with Staphylococcus aureus [3], 0.063 µg/mL (≈ 0.157 µM); with Enterococcus faecalis [4], greater than 64 µg/mL.
On to `COC(=O)Nc1nc2cc(C(=O)c3cccs3)ccc2[nH]1`, for which the inhibition result in assay [7] is “Active”.
In the case of `COc1ccc2c(c[n+](C)c3c4cc5c(cc4ccc23)OCO5)c1OC` [CHELERYTHRINE], the MIC90 in the assay on Enterococcus faecalis [1] is 32 µg/mL; with Staphylococcus aureus [2] it was 4 µg/mL; in the assay with Staphylococcus aureus [3], 4 µg/mL; with Enterococcus faecalis [4], 32 µg/mL.
As for `CC[C@H]1OC(=O)[C@H](C)[C@@H](O[C@H]2C[C@@](C)(OC)[C@@H](O)[C@H](C)O2)[C@H](C)[C@@H](O[C@@H]2O[C@H](C)C[C@H](N(C)C)[C@H]2O)[C@](C)(O)C[C@@H](C)C(=O)[C@H](C)[C@@H](O)[C@]1(C)O` [ERYTHROMYCIN], the MIC90 against Enterococcus faecalis [1] is 1 µg/mL (≈ 1.36 µM); against Staphylococcus aureus [2] it was greater than 64 µg/mL; with Staphylococcus aureus [3], 0.13 µg/mL (≈ 0.177 µM); in the assay on Enterococcus faecalis [4], greater than 64 µg/mL.
Consider `CN(C)[C@@H]1C(O)=C(C(N)=O)C(=O)[C@@]2(O)C(O)=C3C(=O)c4c(O)cccc4[C@@](C)(O)[C@H]3C[C@@H]12` [TETRACYCLINE], for which the MIC90 was 0.5 µg/mL (≈ 1.13 µM) in the assay with Enterococcus faecalis [1], 64 µg/mL (≈ 144 µM) with Staphylococcus aureus [2], 0.063 µg/mL (≈ 0.142 µM) in the assay on Staphylococcus aureus [3] and greater than 64 µg/mL in the assay on Enterococcus faecalis [4].
For `CC(C)(C)c1ccc(-c2cccc3cc(-c4ccccc4CN=C(N)N)ccc23)cc1` the same measures were 2 µg/mL (≈ 4.91 µM), 1 µg/mL (≈ 2.45 µM), 1 µg/mL (≈ 2.45 µM) and 2 µg/mL (≈ 4.91 µM).
The corresponding values for `CN(C)Cc1ccccc1-c1ccc2c(-c3ccc(C(C)(C)C)cc3)cccc2c1` are greater than 64 µg/mL, greater than 64 µg/mL, 32 µg/mL (≈ 81.3 µM) and greater than 64 µg/mL.

Source of the values: ChEMBL document CHEMBL2346578, “Substituted 1,6-diphenylnaphthalenes as FtsZ-targeting antibacterial agents” (2013).
